Reference: ChEMBL document CHEMBL1157143, “Modeling and synthesis of novel tight-binding inhibitors of cytochrome P450 2C9” (Bioorg Med Chem, 2008)

Key:
Cytochrome P450 2C9 = Cytochrome P450 2C9 (Homo sapiens, UniProt P11712); assay: Binding affinity to CYP2C9
[1] = Dissociation constant, pKa of the compound

Sequence of Cytochrome P450 2C9 (P11712 whole entry): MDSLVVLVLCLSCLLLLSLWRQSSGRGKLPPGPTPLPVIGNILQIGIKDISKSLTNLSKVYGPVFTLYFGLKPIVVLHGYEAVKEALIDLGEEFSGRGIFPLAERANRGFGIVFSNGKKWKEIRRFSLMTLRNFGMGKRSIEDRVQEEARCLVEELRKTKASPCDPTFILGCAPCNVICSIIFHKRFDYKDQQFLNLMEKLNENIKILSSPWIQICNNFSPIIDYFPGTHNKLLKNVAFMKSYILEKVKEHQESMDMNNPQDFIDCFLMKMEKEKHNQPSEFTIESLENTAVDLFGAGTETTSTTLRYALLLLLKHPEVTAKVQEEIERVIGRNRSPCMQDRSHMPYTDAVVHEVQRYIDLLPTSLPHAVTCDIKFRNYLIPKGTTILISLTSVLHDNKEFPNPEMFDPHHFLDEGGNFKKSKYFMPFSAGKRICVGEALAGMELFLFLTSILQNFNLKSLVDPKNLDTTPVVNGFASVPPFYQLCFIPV

| Compound | Ki (Cytochrome P450 2C9) [µM] | pKa [1] |
| --- | --- | --- |
| CCCc1oc2ccccc2c(=O)c1C(=O)c1cc(I)c(OC)c(I)c1 | 0.0443 | – |
| CCCc1oc2ccccc2c(=O)c1C(=O)c1cc(I)c(O)c(I)c1 | 0.0042 | 4.89 |
| CCc1oc2ccccc2c(=O)c1C(=O)c1cc(I)c(O)c(I)c1 | 0.023 | 4.89 |
| CCCc1oc2ccccc2c(=O)c1C(=O)c1ccc(OC)cc1 | 3.12 | – |
| Cc1oc2ccccc2c(=O)c1C(=O)c1ccc(O)cc1 | 6.74 | 7.74 |

Next, values leading:

| Ki (Cytochrome P450 2C9) [µM] | pKa [1] | Compound |
| --- | --- | --- |
| 0.656 | 7.74 | CCCc1oc2ccccc2c(=O)c1C(=O)c1ccc(O)cc1 |
| 0.041 | 4.89 | Cc1oc2ccccc2c(=O)c1C(=O)c1cc(I)c(O)c(I)c1 |
| 6.48 | – | CCc1oc2ccccc2c(=O)c1C(=O)c1ccc(OC)cc1 |
| 5.93 | – | COc1ccc(C(=O)c2c(C)oc3ccccc3c2=O)cc1 |
| 1.42 | 7.74 | CCc1oc2ccccc2c(=O)c1C(=O)c1ccc(O)cc1 |
| – | 4.72 | CCc1oc2ccccc2c(=O)c1C(=O)c1cc(Br)c(O)c(Br)c1 |
| 4.87 | – | CCc1oc2ccccc2c(=O)c1C(=O)c1ccncc1 |
